SMILES strings stand for the structures. Read-outs that look alike come from different tables or passages of the source.

The conditions of data set [1]: human, in vivo, 1000 mg.
The next data set in a line: clinical. The conditions noted are these: human, in vivo; for CL renal: CLR (urine); for Tmax: Tmax (plasma).
The conditions of data set [2]: TEAEs by MedDRA class.
From the text: Safety assessments included monitoring of AEs, physical examinations, ECGs, orthostatic vital signs, and clinical laboratory evaluations.
Data set [3] can be described thus: Plasma PK of baxdrostat and baxdrostat-M in the metformin crossover study (Example 6A). The class given is in vivo, human. The conditions noted are these: single 10-mg dose of baxdrostat; for AUC(0-t) / Cmax / Tmax: human. As for the experimental part: This study was designed as a phase 1, randomized, open-label, 2-period, crossover trial. Each subject participated in a screening period of up to 26 days followed by 2 inpatient treatment periods and a follow-up phone call. […] Plasma samples were extracted by protein precipitation with methanol, followed by analysis by LC-MS/MS with ESI(+) and MRM. Reversed-phase chromatographic separation with a mobile phase gradient of 20% to 90% was utilized, and total run time was approximately 5 minutes. […] PK parameters were calculated using noncompartmental methods with SAS software, version 9.4 (SAS Institute). […] Tmax; […] AUC0-t; AUC0-inf, AUC0-inf extrapolated; λz; and t1/2. Plasma AUC0-72 was assessed only for baxdrostat and baxdrostat-M. […] Urine PK parameters included Ae, renal clearance (calculated as Ae/AUC), and the fraction of dose excreted renally.

Data set [4] can be described thus: Pharmacokinetics in subjects with varying degrees of renal function (Example 4). The class given is in vivo, human. The method, then: This phase 1, open-label, single-dose, parallel-group study was designed in accordance with the FDA guidance for the design and analysis of studies that assess the influence of impaired renal function on PK. Subjects were enrolled into three renal function groups defined based on eGFR calculated using the Chronic Kidney Disease Epidemiology Collaboration equation as follows: […]
Control(normal renal function or mild renal impairment:eGFR≥60 mL/min) • Moderate to severe renal impairment (eGFR 15 to 59 mL/min) • Kidney failure (eGFR<15 mL/min, including subjects on dialysis)
All subjects received a single 10 mg dose of baxdrostat in an open-label manner. […] All subjects were required to fast for a minimum of 10 hours prior to baxdrostat administration. They were then dosed at 8:00 AM (±2 hours) with two 5 mg tablets administered with approximately 240 mL of water. Subjects continued fasting for a minimum of 4 hours after dosing. No other medications were permitted within 2 hours prior to dosing and for 2 hours after dosing with baxdrostat. Subjects on dialysis received the study drug on a non-dialysis day. Blood and urine sample collection for PK analysis continued for 7 days and was proceeded by a follow-up phone call 3±1 days after clinic discharge.
Plasma and urine samples were analyzed to measure concentrations of baxdrostat and its primary metabolite (baxdrostat-M) using a validated LC-MS/MS method. “Baxdrostat-M” as used herein refers a compound having the following structure:
Blood and urine samples were collected prior to and after dosing for measurement of plasma and urine baxdrostat and baxdrostat-M concentrations to characterize maximum observed plasma concentration (Cmax), time to Cmax (Tmax), AUC0-last, and AUC0-inf for baxdrostat and baxdrostat-M. The t1/2, CL/F, and V/F were calculated for plasma baxdrostat only. Urine PK parameters included the cumulative amount of baxdrostat and baxdrostat-M excreted in urine (Ae), renal clearance (CLR) of baxdrostat and baxdrostat-M, and fraction of dose excreted renally (Fe) for baxdrostat.

For data set [5] the following is noted: PATHWAY-2 study; cited from earlier work.

Turning to `CN(C)C(=N)N=C(N)N` [Metformin, metformin], in data set [1], the “AUC0-inf (plasma), GM” value is recorded as 11,087.78 h · ng/mL; the “AUC0-inf (plasma), Mean” value is 11,224.76 h · ng/mL; the “AUC0-t (plasma), GM” value is given as 11,024.21 h · ng/mL; the “AUC0-t (plasma), Mean” value was 11,158.75 h · ng/mL. Moreover, in data set [1], the “Cmax (plasma), GM” value stood at 1732.62 ng/mL and the “Cmax (plasma), Mean” value is 1765.39 ng/mL. The CL renal in “clinical” (1000 mg, GM) is 460 mL/min. The CL renal in the data set “clinical” (1000 mg, Mean) is 466 mL/min. The Tmax in “clinical” (1000 mg, Mean (SD)) turned out to be 2.14 h. The molecule further had a CL renal in “clinical” (GM) of 430 mL/min. The CL renal in “clinical” (Mean) was 441 mL/min. Further, the Tmax in the data set “clinical” (GM (CV %)) was 1.92 h. In “clinical” (Mean (SD)), the Tmax was determined as 2.04 h. Moreover, in data set [2], the “Abdominal pain upper, No. (%)” value was 1 (3.8) No. (%); the “Burns first degree, No. (%)” value is 1 (3.8) No. (%); the “Diarrhea, No. (%)” value is given as 3 (11.5) No. (%); the “Dizziness postural, No. (%)” value is recorded as 0 (0.0) No. (%). Also, in data set [2], the “Flatulence, No. (%)” value is recorded as 0 (0.0) No. (%); the “Gastrointestinal disorders, No. (%)” value is 4 (15.4) No. (%); the “General disorders and administration site conditions, No. (%)” value is listed as 0 (0.0) No. (%); the “Injury, poisoning, and procedural complications, No. (%)” value is listed as 1 (3.8) No. (%). Further, in data set [2], the “Nausea, No. (%)” value was 1 (3.8) No. (%); the “Nervous system disorders, No. (%)” value is 0 (0.0) No. (%); the “Presyncope, No. (%)” value is 0 (0.0) No. (%); the “Vessel puncture site pain, No. (%)” value was 0 (0.0) No. (%). Also, in data set [2] (listed as metformin), the “Diarrhea, No. (%)” value is given as 3 (11.5%) No. (%).
Consider `CN1C(=O)CCc2cc(-c3cncc4c3CCCC4O)ccc21` (stereo not drawn) [baxdrostat-M], for which the AUC(0-t) is 103 ng·h/mL in data set [3] (read-out: AUC0-24, GM); 111 ng·h/mL in data set [3] (read-out: AUC0-24, Mean); 248 ng·h/mL in data set [3] (read-out: AUC0-72, GM); 264 ng·h/mL in data set [3] (read-out: AUC0-72, Mean). Further, the Cmax in data set [3] (read-out: Cmax, GM) amounted to 6.16 ng/mL; in data set [3] (read-out: Cmax, Mean), 6.72 ng/mL. Moreover, the Tmax in data set [3] (read-out: Tmax, GM) was 12.4 h; in data set [3] (read-out: Tmax, Mean) it was 15.7 h; in data set [4] (human, plasma, oral, 10 mg, all renal function groups, after single 10 mg baxdrostat, read-out: Tmax), approximately 22 h. Moreover, in data set [3], the “λz, GM” value worked out at 0.030 h⁻¹. Also, the “λz, Mean” value in data set [3] was found to be 0.030 h⁻¹. For the same molecule, the “plasma concentration-time curves vs control” value in data set [4] (moderate to severe renal impairment and kidney failure groups) is “qualitatively similar to the control group”.
Regarding `CC(=O)S[C@@H]1CC2=CC(=O)CC[C@]2(C)[C@H]2CC[C@@]3(C)[C@@H](CC[C@@]34CCC(=O)O4)[C@H]12` [spironolactone], in data set [5], the rate of hyperkalemia is given as 2.1%.

In general, Tmax refers to the time at which the peak concentration occurs. Broadly, the Cmax is the maximum level reached in the sampled fluid or tissue.

The values above are taken from patent publication US20260041679A1, “METHOD OF TREATING HYPERTENSION WITH THE ALDOSTERONE SYNTHASE INHIBITOR BAXDROSTAT” (CINCOR PHARMA, INC., priority 2022, published 2026).
